According to US11000033B2, “Ketone or oxime compound, and herbicide” (NISSAN CHEMICAL CORPORATION, priority 2014, dated 2021):

Tests used:
Format in all cases: in vivo
[1] = system: Apera spica-venti; assay: Test Example 5: herbicidal effect by foliage application, plastic box (symbol L); conditions: 320 g/ha, 3 weeks after application
How it was run: (§1)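 After sowing into sterilized diluvial soil and growing two weeks under glass at 25° C. to 30° C., seedlings receive a uniform foliar spray of diluted emulsion. Damage is judged visually three weeks on.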

[2] = system: Avena fatua; assay: Test Example 5: herbicidal effect by foliage application, plastic box (symbol I); conditions: 320 g/ha, 3 weeks after application
How it was run: as §1

[3] = system: Alopecurus myosuroides; assay: Test Example 4: herbicidal effect by soil treatment (symbol J); conditions: 320 g/ha
How it was run: (§2)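 Seeds were sown in sterilized diluvial soil, covered with about 1.5 cm of soil, and the soil surface was sprayed with a water-diluted emulsion of the compound at a predetermined rate. Plants grew in a greenhouse at 25° C. to 30° C.; effects were scored visually 3 weeks after application.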

[4] = system: Veronica persica; assay: Test Example 4: herbicidal effect by soil treatment (symbol R); conditions: 320 g/ha
How it was run: as §2

[5] = system: Abutilon theophrasti; assay: Test Example 5: herbicidal effect by foliage application, plastic box (symbol M); conditions: 320 g/ha, 3 weeks after application
How it was run: as §1

[6] = system: beet; assay: Test Example 5: effect on crop by foliage application, plastic box (symbol f); conditions: 320 g/ha, 3 weeks after application
How it was run: (§3)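 Box culture: sterile diluvial soil, seeds spot-sown, ~1.5 cm cover, raised under glass at 25–30° C.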

[7] = system: Echinochloa crus-galli var. crus-galli; assay: Test Example 4: herbicidal effect by soil treatment (symbol H); conditions: 320 g/ha
How it was run: as §2

[8] = system: rapeseed; assay: Test Example 4: effect on crop by soil treatment (symbol g); conditions: 320 g/ha
How it was run: (§4)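 Greenhouse culture at 25° C. to 30° C. followed sowing of seed in spots on sterilized diluvial soil with a soil cover close to 1.5 cm thick.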

[9] = system: Stellaria media; assay: Test Example 5: herbicidal effect by foliage application, plastic box (symbol P); conditions: 320 g/ha, 3 weeks after application
How it was run: as §1

[10] = system: Galium spurium; assay: Test Example 4: herbicidal effect by soil treatment (symbol Q); conditions: 320 g/ha
How it was run: as §2

[11] = system: Digitaria ciliaris; assay: Test Example 5: herbicidal effect by foliage application, plastic box (symbol F); conditions: 320 g/ha, 3 weeks after application
How it was run: as §1

[12] = system: directly sowed rice plant; assay: Test Example 3: effect on crop by foliage application, Wagner pot (symbol b); conditions: application herbicide amount 320 g/ha
How it was run: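 Greenhouse culture at 25–30 °C of seeded rice, Cyperus difformis, Leptochloa chinensis and Echinochloa crus-galli var. crus-galli, in alluvial soil held under 0.1–0.5 cm of water in a Wagner pot.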

[13] = system: corn; assay: Test Example 4: effect on crop by soil treatment (symbol c); conditions: 320 g/ha
How it was run: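 Steps: fill box with sterilized diluvial soil; sow seed spot-like; cover with ~1.5 cm soil; grow in greenhouse (25° C. to 30° C.).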

[14] = system: Chenopodium album; assay: Test Example 5: herbicidal effect by foliage application, plastic box (symbol O); conditions: 320 g/ha, 3 weeks after application
How it was run: as §1

[15] = system: rice; assay: Test Example 4: effect on crop by soil treatment (symbol b); conditions: 320 g/ha
How it was run: as §4

[16] = system: Veronica persica; assay: Test Example 5: herbicidal effect by foliage application, plastic box (symbol R); conditions: 320 g/ha, 3 weeks after application
How it was run: as §1

[17] = system: Digitaria ciliaris; assay: Test Example 4: herbicidal effect by soil treatment (symbol F); conditions: 320 g/ha
How it was run: as §2

[18] = system: Stellaria media; assay: Test Example 4: herbicidal effect by soil treatment (symbol P); conditions: 320 g/ha
How it was run: as §2

[19] = system: soybean; assay: Test Example 4: effect on crop by soil treatment (symbol d); conditions: 320 g/ha
How it was run: as §4

[20] = system: Setaria viridis; assay: Test Example 5: herbicidal effect by foliage application, plastic box (symbol G); conditions: 320 g/ha, 3 weeks after application
How it was run: as §1

[21] = system: wheat; assay: Test Example 5: effect on crop by foliage application, plastic box (symbol e); conditions: 320 g/ha, 3 weeks after application
How it was run: as §3

[22] = system: beet; assay: Test Example 4: effect on crop by soil treatment (symbol f); conditions: 320 g/ha
How it was run: as §4

[23] = system: Lolium multiflorum Lam.; assay: Test Example 4: herbicidal effect by soil treatment (symbol K); conditions: 320 g/ha
How it was run: as §2

[24] = system: rice plant; assay: Test Example 5: effect on crop by foliage application, plastic box (symbol b); conditions: 320 g/ha, 3 weeks after application
How it was run: as §3

[25] = system: Galium spurium; assay: Test Example 5: herbicidal effect by foliage application, plastic box (symbol Q); conditions: 320 g/ha, 3 weeks after application
How it was run: as §1

| SMILES | L: Apera spica-venti, herbicidal effect (criteria 0-5) [1] | I: Avena fatua, herbicidal effect (criteria 0-5) [2] | J: Alopecurus myosuroides, herbicidal effect grade [3] | R: Veronica persica, herbicidal effect grade [4] | M: Abutilon theophrasti, herbicidal effect (criteria 0-5) [5] | f: beet, effect on crop (criteria 0-5) [6] | H: Echinochloa crus-galli var. crus-galli, herbicidal effect grade [7] | g: rapeseed, effect grade on crop [8] | P: Stellaria media, herbicidal effect (criteria 0-5) [9] | Q: Galium spurium, herbicidal effect grade [10] | F: Digitaria ciliaris, herbicidal effect (criteria 0-5) [11] | effect on crop b (directly sowed rice plant), grade 0-5 [12] | c: corn, effect grade on crop [13] | O: Chenopodium album, herbicidal effect (criteria 0-5) [14] | b: directly sowed rice plant, effect grade on crop [15] | R: Veronica persica, herbicidal effect (criteria 0-5) [16] | F: Digitaria ciliaris, herbicidal effect grade [17] | P: Stellaria media, herbicidal effect grade [18] | d: soybean, effect grade on crop [19] | G: Setaria viridis, herbicidal effect (criteria 0-5) [20] | other results |
| --- | --- | --- | --- | --- | --- | --- | --- | --- | --- | --- | --- | --- | --- | --- | --- | --- | --- | --- | --- | --- | --- |
| CCCON=C(C)CC1CC(O)=C(c2c(C)cc(C)cc2C)C1=O (stereo not drawn) [1-123] | 5 (Herbicidal ratio of 90% or more (almost completely withered)) | 5 (Herbicidal ratio of 90% or more (almost completely withered)) | 5 (Herbicidal ratio of 90% or more (almost completely withered)) | 0 (Herbicidal ratio of 5% or lower (almost no effect)) | 4 (Herbicidal ratio of 70% or higher and lower than 90%) | 0 (Herbicidal ratio of 5% or lower (almost no effect)) | 5 (Herbicidal ratio of 90% or more (almost completely withered)) | 3 (Herbicidal ratio of 40% or higher and lower than 70%) | 3 (Herbicidal ratio of 40% or higher and lower than 70%) | 0 (Herbicidal ratio of 5% or lower (almost no effect)) | 5 (Herbicidal ratio of 90% or more (almost completely withered)) | 5 (Herbicidal ratio of 90% or more (almost completely withered)) | 3 (Herbicidal ratio of 40% or higher and lower than 70%) | 0 (Herbicidal ratio of 5% or lower (almost no effect)) | 5 (Herbicidal ratio of 90% or more (almost completely withered)) | 4 (Herbicidal ratio of 70% or higher and lower than 90%) | 5 (Herbicidal ratio of 90% or more (almost completely withered)) | 0 (Herbicidal ratio of 5% or lower (almost no effect)) | 0 (Herbicidal ratio of 5% or lower (almost no effect)) | 5 (Herbicidal ratio of 90% or more (almost completely withered)) | e: wheat, effect on crop (criteria 0-5) [21]: 5 (Herbicidal ratio of 90% or more (almost completely withered)); f: beet, effect grade on crop [22]: 0 (Herbicidal ratio of 5% or lower (almost no effect)); K: Lolium multiflorum Lam., herbicidal effect grade [23]: 5 (Herbicidal ratio of 90% or more (almost completely withered)); b: directly sowed rice plant, effect on crop (criteria 0-5) [24]: 5 (Herbicidal ratio of 90% or more (almost completely withered)); Q: Galium spurium, herbicidal effect (criteria 0-5) [25]: 0 (Herbicidal ratio of 5% or lower (almost no effect)) |
| CC(CC1CC(O)=C(c2c(C)cc(C)cc2C)C1=O)=NOCC(N)=O (stereo not drawn) [1-124] | 3 (Herbicidal ratio of 40% or higher and lower than 70%) | 2 (Herbicidal ratio of 20% or higher and lower than 40%) | 2 (Herbicidal ratio of 20% or higher and lower than 40%) | 0 (Herbicidal ratio of 5% or lower (almost no effect)) | 0 (Herbicidal ratio of 5% or lower (almost no effect)) | 0 (Herbicidal ratio of 5% or lower (almost no effect)) | 1 (Herbicidal ratio of 5% or higher and lower than 20%) | 0 (Herbicidal ratio of 5% or lower (almost no effect)) | 2 (Herbicidal ratio of 20% or higher and lower than 40%) | 0 (Herbicidal ratio of 5% or lower (almost no effect)) | 0 (Herbicidal ratio of 5% or lower (almost no effect)) | 5 (Herbicidal ratio of 90% or more (almost completely withered)) | 0 (Herbicidal ratio of 5% or lower (almost no effect)) | 3 (Herbicidal ratio of 40% or higher and lower than 70%) | 1 (Herbicidal ratio of 5% or higher and lower than 20%) | 0 (Herbicidal ratio of 5% or lower (almost no effect)) | 0 (Herbicidal ratio of 5% or lower (almost no effect)) | 0 (Herbicidal ratio of 5% or lower (almost no effect)) | 0 (Herbicidal ratio of 5% or lower (almost no effect)) | 2 (Herbicidal ratio of 20% or higher and lower than 40%) | e: wheat, effect on crop (criteria 0-5) [21]: 3 (Herbicidal ratio of 40% or higher and lower than 70%); f: beet, effect grade on crop [22]: 0 (Herbicidal ratio of 5% or lower (almost no effect)); K: Lolium multiflorum Lam., herbicidal effect grade [23]: 3 (Herbicidal ratio of 40% or higher and lower than 70%); b: directly sowed rice plant, effect on crop (criteria 0-5) [24]: 3 (Herbicidal ratio of 40% or higher and lower than 70%); Q: Galium spurium, herbicidal effect (criteria 0-5) [25]: 0 (Herbicidal ratio of 5% or lower (almost no effect)) |
| CC(CC1CC(O)=C(c2c(C)cc(C)cc2C)C1=O)=NOCC[S+](C)[O-] (stereo not drawn) [1-125] | 5 (Herbicidal ratio of 90% or more (almost completely withered)) | 5 (Herbicidal ratio of 90% or more (almost completely withered)) | 0 (Herbicidal ratio of 5% or lower (almost no effect)) | 0 (Herbicidal ratio of 5% or lower (almost no effect)) | 0 (Herbicidal ratio of 5% or lower (almost no effect)) | 0 (Herbicidal ratio of 5% or lower (almost no effect)) | 5 (Herbicidal ratio of 90% or more (almost completely withered)) | 0 (Herbicidal ratio of 5% or lower (almost no effect)) | 2 (Herbicidal ratio of 20% or higher and lower than 40%) | 0 (Herbicidal ratio of 5% or lower (almost no effect)) | 5 (Herbicidal ratio of 90% or more (almost completely withered)) | 5 (Herbicidal ratio of 90% or more (almost completely withered)) | 2 (Herbicidal ratio of 20% or higher and lower than 40%) | 1 (Herbicidal ratio of 5% or higher and lower than 20%) | 5 (Herbicidal ratio of 90% or more (almost completely withered)) | 2 (Herbicidal ratio of 20% or higher and lower than 40%) | 5 (Herbicidal ratio of 90% or more (almost completely withered)) | 0 (Herbicidal ratio of 5% or lower (almost no effect)) | 0 (Herbicidal ratio of 5% or lower (almost no effect)) | 5 (Herbicidal ratio of 90% or more (almost completely withered)) | e: wheat, effect on crop (criteria 0-5) [21]: 5 (Herbicidal ratio of 90% or more (almost completely withered)); f: beet, effect grade on crop [22]: 0 (Herbicidal ratio of 5% or lower (almost no effect)); K: Lolium multiflorum Lam., herbicidal effect grade [23]: 5 (Herbicidal ratio of 90% or more (almost completely withered)); b: directly sowed rice plant, effect on crop (criteria 0-5) [24]: 5 (Herbicidal ratio of 90% or more (almost completely withered)); Q: Galium spurium, herbicidal effect (criteria 0-5) [25]: 3 (Herbicidal ratio of 40% or higher and lower than 70%) |
